Test results as given in patent US20230138395A1, “PHARMACEUTICAL COMPOSITIONS OF A THERAPEUTIC POLYENE MACROLIDE AND METHODS OF THEIR USE” (priority 2020, published 2023).
Values after ≈ are worked out from the molar mass of the structure shown. Values joined by “and” are separate entries in the source; they are usually repeats but may differ in a detail not shown here. Equal values may be shown once.

Legend:
[1] = test system: Candida albicans; assay: MIC testing (CLSI M27-A3); format: cell-based; set-up: MIC: unit not given beside the values
[2] = test system: Candida albicans; assay: MFC determination; format: cell-based
[3] = test system: C. glabrata strains; assay: MIC testing (CLSI M27-A3); format: cell-based; set-up: MIC: unit not given beside the values
[4] = test system: C. krusei strains; assay: MIC testing (CLSI M27-A3); format: cell-based
[5] = test system: C. krusei strains; assay: MFC determination; format: cell-based; details: C. krusei
[6] = test system: C. parapsilosis; assay: MFC determination; format: cell-based
[7] = test system: C. tropicalis; assay: MFC determination; format: cell-based
[8] = test system: all Candida strains; assay: MIC testing (CLSI M27-A3), summary; format: cell-based
[9] = test system: Cr. neoformans strains; assay: MIC testing (CLSI M27-A3, YNB, 72 h); format: cell-based, Cryptococcus neoformans
[10] = test system: individual Aspergillus spp. (Table 12, species not named); assay: MIC testing (CLSI M38-A2), Table 12; format: cell-based; details: Aspergillus sp. of Table 12, caspofungin read as MEC
[11] = test system: individual Aspergillus spp. (Table 12, species not named); assay: MFC determination, Table 12; format: cell-based; details: Aspergillus sp. of Table 12
[12] = test system: individual Aspergillus spp. (Table 13, species not given); assay: MIC testing (CLSI M38-A2), Table 13; format: cell-based; details: Aspergillus sp. of Table 13, caspofungin read as MEC
[13] = test system: individual Aspergillus spp. (Table 13, species not given); assay: MFC determination, Table 13; format: cell-based; details: Aspergillus sp. of Table 13
[14] = test system: individual Aspergillus spp. (Table 14, species not named); assay: MFC determination, Table 14; format: cell-based; details: Aspergillus sp. of Table 14
[15] = test system: individual Aspergillus spp. (Table 15, species not named); assay: MIC testing (CLSI M38-A2), Table 15; format: cell-based; details: Aspergillus sp. of Table 15, caspofungin read as MEC
[16] = test system: individual Aspergillus spp. (Table 15, species not named); assay: MFC determination, Table 15; format: cell-based; details: Aspergillus sp. of Table 15
[17] = test system: all Aspergillus strains tested; assay: MIC testing (CLSI M38-A2), summary; format: cell-based; details: caspofungin read as MEC
[18] = test system: all Aspergillus strains tested; assay: MFC determination, summary; format: cell-based
[19] = test system: Fusarium strains; assay: MIC testing (CLSI M38-A2), Table 17; format: cell-based, Fusarium spp.; details: Fusarium strains (Table 17)
[20] = test system: Fusarium strains; assay: MFC determination, Table 17; format: cell-based, Fusarium spp.; details: Fusarium strains (Table 17)
[21] = test system: Fusarium strains (Table 18); assay: MFC determination, Table 18; format: cell-based, Fusarium spp.
[22] = test system: Penicillium strains; assay: MIC testing (CLSI M38-A2); format: cell-based, Penicillium spp.; details: Penicillium
[23] = test system: Penicillium strains; assay: MFC determination; format: cell-based, Penicillium spp.
[24] = test system: C. albicans SC5314; assay: In vitro activity (MIC) against the infecting strain, Example 18; format: cell-based, Candida albicans; details: Candida albicans, read-out: MIC
[25] = test system: C. albicans SC5314; assay: In vitro activity (MFC) against the infecting strain, Example 18; format: cell-based, Candida albicans; details: Candida albicans, read-out: MFC
[26] = test system: Candida albicans SC5314; assay: Disseminated candidiasis in immunocompromised murine model (BALB/c mice): tissue fungal burden; format: in vivo; details: Experiment I; 4 mg/kg i.v. twice a day, 7 days
[27] = test system: Aspergillus fumigatus AF91; assay: Disseminated Aspergillosis in immunocompromised murine model (CD-1 mice): tissue fungal burden; details: Experiment I; 7.5 mg/kg i.v., 7 days
[28] = Fluconazole-susceptible C. albicans n = 13, in µg/mL

C[C@@H](c1ncncc1F)[C@](O)(Cn1cncn1)c1ccc(F)cc1F [Voriconazole, voriconazole]
MIC Range [1, 28]: <0.06-0.06
MIC50 ([1]; Fluconazole-susceptible C. albicans n = 13, inhibits 50% of strains): 0.6 µg/mL (≈ 1.72 µM)
MIC90 ([1]; Fluconazole-susceptible C. albicans n = 13, inhibits 90% of strains): 0.06 µg/mL (≈ 0.172 µM)
MIC ([1]; individual C. albicans strain with elevated MICs to non-polyene comparators (Table 22), listed as Vor, in µg/mL): >0.06 and 0.5 and 32
MFC Range [2, 28]: >32
MFC50 ([2]; Fluconazole-susceptible C. albicans n = 13, kills 50% of strains): > 32 µg/mL
MFC90 ([2]; Fluconazole-susceptible C. albicans n = 13, kills 90% of strains): > 32 µg/mL
MFC ([2]; individual C. albicans strain with elevated MICs to non-polyene comparators (Table 22), listed as Vor): 16 and >32 (2×)
MIC50 ([3]; C. glabrata, inhibits 50% of strains): 0.25 µg/mL (≈ 0.716 µM)
MIC90 ([3]; C. glabrata, inhibits 90% of strains): 4 µg/mL (≈ 11.5 µM)
MIC ([3]; individual C. glabrata strain with elevated MICs to non-polyene comparators (Table 22), listed as Vor): 1 (3×) and >32 and 0.25 and 2
MIC Range ([4]; C. krusei strains, in µg/mL): <0.06-0.5
MIC50 ([4]; C. krusei, inhibits 50% of strains): 0.125 µg/mL (≈ 0.358 µM)
MIC90 ([4]; C. krusei, inhibits 90% of strains): 0.25 µg/mL (≈ 0.716 µM)
MFC50 ([5]; kills 50% of strains): > 8 µg/mL
MFC90 ([5]; kills 90% of strains): > 8 µg/mL
MFC50 ([6]; C. parapsilosis, kills 50% of strains): > 32 µg/mL
MFC90 ([6]; C. parapsilosis, kills 90% of strains): > 32 µg/mL
MFC ([6]; individual C. parapsilosis strain with elevated MICs to non-polyene comparators (Table 22), in µg/mL): >32
MFC Range ([7]; C. tropicalis strains, in µg/mL): >32
MFC50 ([7]; C. tropicalis, kills 50% of strains): > 32 µg/mL
MFC90 ([7]; C. tropicalis, kills 90% of strains): > 32 µg/mL
MIC50 ([8]; inhibits 50% of strains): 0.06 µg/mL (≈ 0.172 µM)
MIC90 ([8]; inhibits 90% of strains): 1 µg/mL (≈ 2.86 µM)
MIC Range ([9]; Cr. neoformans strains, 72 h, in µg/mL): <0.06-0.25
MIC50 ([9]; Cr. neoformans, inhibits 50% of strains): < 0.06 µg/mL
MIC90 ([9]; Cr. neoformans, inhibits 90% of strains): 0.125 µg/mL (≈ 0.358 µM)
MIC Range ([10]; in µg/mL): 0.25-4
MIC50 ([10]; inhibits 50% of strains): 1 µg/mL (≈ 2.86 µM)
MIC90 ([10]; inhibits 90% of strains): 2 µg/mL (≈ 5.73 µM)
MFC50 ([11]; kills 50% of strains): 4 µg/mL (≈ 11.5 µM)
MFC90 ([11]; kills 90% of strains): > 16 µg/mL
MIC Range ([12]; in µg/mL): 0.25-2
MIC50 ([12]; inhibits 50% of strains): 0.5 µg/mL (≈ 1.43 µM)
MIC90 ([12]; inhibits 90% of strains): 1 µg/mL (≈ 2.86 µM)
MFC50 ([13]; kills 50% of strains): 8 µg/mL (≈ 22.9 µM)
MFC90 ([13]; kills 90% of strains): > 8 µg/mL
MFC50 ([14]; kills 50% of strains): > 8 µg/mL
MFC90 ([14]; kills 90% of strains): > 8 µg/mL
MIC Range ([15]; in µg/mL): 0.25-2
MIC50 ([15]; inhibits 50% of strains): 0.5 µg/mL (≈ 1.43 µM)
MIC90 ([15]; inhibits 90% of strains): 0.5 µg/mL (≈ 1.43 µM)
MFC50 ([16]; kills 50% of strains): > 4 µg/mL
MFC90 ([16]; kills 90% of strains): > 4 µg/mL
MIC Range ([17]; in µg/mL): 0.06-8
MIC50 ([17]; inhibits 50% of strains): 0.5 µg/mL (≈ 1.43 µM)
MIC90 ([17]; inhibits 90% of strains): 2 µg/mL (≈ 5.73 µM)
MFC50 ([18]; kills 50% of strains): > 8 µg/mL
MFC90 ([18]; kills 90% of strains): > 8 µg/mL
MIC50 ([19]; inhibits 50% of strains): 16 µg/mL (≈ 45.8 µM)
MIC90 ([19]; inhibits 90% of strains): > 32 µg/mL
MFC50 ([20]; kills 50% of strains): 32 µg/mL (≈ 91.6 µM)
MFC90 ([20]; kills 90% of strains): > 32 µg/mL
MFC50 ([21]; kills 50% of strains): > 16 µg/mL
MFC90 ([21]; kills 90% of strains): > 16 µg/mL
MIC50 ([22]; inhibits 50% of strains): 4 µg/mL (≈ 11.5 µM)
MIC90 ([22]; inhibits 90% of strains): > 32 µg/mL
MFC50 ([23]; kills 50% of strains): > 32 µg/mL
MFC90 ([23]; kills 90% of strains): > 32 µg/mL
MIC [24]: 0.008 µg/mL (≈ 0.0229 µM)
MFC [25]: > 32 µg/mL
Brain tissue fungal burden, Mean log CFUs ± the standard deviation [26]: 3.42 ± 2.30 log CFUs
Kidney tissue fungal burden, Mean log CFUs ± the standard deviation [26]: 3.45 ± 1.15 log CFUs
Kidney tissue fungal burden, Mean log CFUs ± the standard deviation [27]: 3.19 ± 0.59 log CFUs
Lung tissue fungal burden, Mean log CFUs ± the standard deviation [27]: 3.38 ± 0.45 log CFUs
